One series deals with PDH. To be noted: cited from earlier work.
The conditions of series [1]: after repeated administration (Evans and Stacpoole 1982); cited from earlier work.

In turn, `Cc1cc(C(=O)c2ccccc2)ccc1NC(=O)C(C)(O)C(F)(F)F` (centres unmarked) returned a melting point of 123 to 124 °C.
Still for that read-out and setting: as for `C[C@@](O)(C(=O)Nc1ccc(S(=O)(=O)c2ccccc2)cc1F)C(F)(F)F`, the figure is 121 to 122 °C.
In the case of `O=C(O)C(Cl)Cl` [DCA, dichloroacetic acid], in the series on PDH (after acute administration in animals (Vary et al., 1988)), the “activity of PDH” value is reported as “increases the activity of PDH”. Moreover, the “proportion of PDH in its active form” value with PDH (single administration, 150 mg/kg, intraperitoneally (Vary et al. 1988)) is on record as “increased the proportion of PDH in its active form”. For the same compound, the plasma glucose result in series [1] is “significant decrease in plasma glucose”.

Broadly, the melting point is the temperature of the solid-liquid transition.
